Results: ChEMBL document CHEMBL3745675, “Design and optimization of selective azaindole amide M1 positive allosteric modulators” (Bioorg Med Chem Lett, 2016)

Experiments:
[1] = Ratio drug level in brain to plasma in C57BL/6j mouse at […], sc after 1 hr; type: ADME, organism-based; settings: read-out: BPR
[2] = AUC (0 to infinity) in Wistar Hann rat CSF at 5 mg/kg, sc; type: ADME, organism-based, Cerebrospinal fluid; design: dose 5 mg/kg, time infinity, route subcutaneous
[3] = Cmax in Wistar Hann rat plasma at 5 mg/kg, sc; type: ADME, organism-based; design: dose 5 mg/kg, route subcutaneous
[4] = Ratio of drug level in brain to plasma in Wistar Hann rat at 5 mg/kg, sc after 1 hr; type: ADME, organism-based
[5] = Drug concentration in Wistar Hann rat plasma at 5 mg/kg, sc after 1 hr; type: ADME, organism-based
[6] = Cmax in Wistar Hann rat CSF at 5 mg/kg, sc; type: ADME, organism-based, Cerebrospinal fluid; design: dose 5 mg/kg, route subcutaneous
[7] = Drug concentration in Wistar Hann rat plasma at 5 mg/kg, sc after 2 hrs; type: ADME, organism-based
[8] = Drug concentration in Wistar Hann rat CSF at 5 mg/kg, sc after 2 hrs; type: ADME, organism-based, Cerebrospinal fluid; settings: read-out: Drug uptake
Plasma [9] = experiment: Fraction unbound in Wistar Hann rat plasma at 5 mg/kg, sc after 4 hrs; type: ADME, organism-based; settings: in vivo
[10] = Ratio of unbound AUC in brain to plasma in Wistar Hann rat at 5 mg/kg, sc after 1 hr; type: ADME, organism-based; settings: read-out: Ratio AUC
Plasma [11] = experiment: Fraction unbound in Wistar Hann rat plasma at 5 mg/kg, sc after 6 hrs; type: ADME, organism-based; settings: in vivo
[12] = Ratio of unbound AUC in CSF to plasma in Wistar Hann rat at 5 mg/kg, sc after 4 hrs; type: ADME, organism-based; settings: CSF and plasma, read-out: Ratio AUC
[13] = Drug concentration in Wistar Hann rat CSF at 5 mg/kg, sc after 4 hrs; type: ADME, organism-based, Cerebrospinal fluid; settings: read-out: Drug uptake
[14] = Ratio of unbound AUC in CSF to plasma in Wistar Hann rat at 5 mg/kg, sc after 2 hrs; type: ADME, organism-based; settings: CSF and plasma, read-out: Ratio AUC
Plasma [15] = experiment: Fraction unbound in C57BL/6j mouse plasma at […], sc after 1 hr; type: ADME, organism-based; settings: in vivo
[16] = Ratio of unbound AUC in brain to plasma in C57BL/6j mouse at […], sc after 1 hr; type: ADME, organism-based; settings: read-out: Ratio AUC
[17] = AUC (0 to infinity) in Wistar Hann rat plasma at 5 mg/kg, sc; type: ADME, organism-based; design: dose 5 mg/kg, time infinity, route subcutaneous
[18] = Ratio of unbound AUC in brain to plasma in C57BL/6j mouse; type: ADME, organism-based; settings: read-out: Ratio AUC
[19] = Ratio of unbound AUC in brain to plasma in C57BL/6j mouse at 10 mg/kg, sc after 0.5 hrs; type: ADME, organism-based; settings: read-out: Ratio AUC
[20] = Drug concentration in Wistar Hann rat brain at 5 mg/kg, sc after 1 hr; type: ADME, organism-based; settings: read-out: Drug uptake
[21] = Drug concentration in Wistar Hann rat CSF at 5 mg/kg, sc after 1 hr; type: ADME, organism-based, Cerebrospinal fluid; settings: read-out: Drug uptake
[22] = Ratio of drug level in CSF to plasma in Wistar Hann rat at 5 mg/kg, sc after 2 hrs; type: ADME, organism-based; settings: CSF and plasma
[23] = AUC in Wistar Hann rat at 2 mg/kg, po; type: ADME, organism-based; settings: in vivo
[24] = Cmax in Wistar Hann rat at 2 mg/kg, po; type: ADME, organism-based; design: dose 2 mg/kg, route oral; settings: in vivo
[25] = Tmax in Wistar Hann rat CSF at 5 mg/kg, sc; type: ADME, organism-based, Cerebrospinal fluid
[26] = Ratio of drug level in brain to plasma in Wistar Hann rat at 5 mg/kg, sc after 4 hrs; type: ADME, organism-based
[27] = Permeability in RRCK cells; type: ADME, cell-based, Canis lupus familiaris, MDCKII-LE; settings: dog, MDCK; read-out: permeability
[28] = Drug concentration in Wistar Hann rat brain at 5 mg/kg, sc after 2 hrs; type: ADME, organism-based; settings: read-out: Drug uptake
Plasma [29] = experiment: Fraction unbound in C57BL/6j mouse plasma at 10 mg/kg, sc after 1 hr; type: ADME, organism-based; settings: in vivo
[30] = Ratio of drug level in CSF to plasma in Wistar Hann rat at 5 mg/kg, sc after 1 hr; type: ADME, organism-based; settings: CSF and plasma
[31] = AUC (0 to tlast) in Wistar Hann rat plasma at 5 mg/kg, sc; type: ADME, organism-based
[32] = Ratio of unbound AUC in brain to plasma in C57BL/6j mouse at 10 mg/kg, sc after 1 hr; type: ADME, organism-based; settings: read-out: Ratio AUC
[33] = Ratio of unbound AUC in brain to plasma in Wistar Hann rat at 5 mg/kg, sc after 4 hrs; type: ADME, organism-based; settings: brain and plasma, read-out: Ratio AUC
[34] = Ratio of unbound AUC in CSF to plasma in Wistar Hann rat at 5 mg/kg, sc after 6 hrs; type: ADME, organism-based; settings: CSF and plasma, read-out: Ratio AUC
[35] = Ratio of unbound AUC in brain to plasma in C57BL/6j mouse at 10 mg/kg, sc after 4 hrs; type: ADME, organism-based; settings: read-out: Ratio AUC
[36] = Ratio of drug level in CSF to plasma in Wistar Hann rat at 5 mg/kg, sc after 4 hrs; type: ADME, organism-based; settings: CSF and plasma

Structure (SMILES): Cn1ccc(-c2ccc(Cn3cc(C(=O)N[C@H]4CCOC[C@@H]4O)c4ncccc43)cc2)n1
- Kp at 1 h [1]: 0.04
- AUC(0-inf) [2]: 380 ng·h/mL
- Cmax [3]: 2360 ng/mL
- Kp at 1 h [4]: 0.21
- concentration at 1 h [5]: 5030 nM
- Cmax [6]: 62.2 ng/mL
- concentration at 2 h [7]: 5460 nM
- concentration at 2 h [8]: 144 nM
- Cp(f) (Plasma [9]): 293 nM
- Kp uu at 1 h [10]: 0.15
- Cp(f) (Plasma [11]): 197.5 nM
- Kp uu at 4 h [12]: 0.27
- concentration at 4 h [13]: 76.2 nM
- Kp uu at 2 h [14]: 0.29
- Cp(f) (Plasma [15]): 302.2 nM
- Kp uu at 1 h [16]: 0.1
- AUC(0-inf) [17]: 13400 ng·h/mL
- Kp uu [18]: 0.2
- Kp uu at 0.5 h [19]: 0.34
- concentration at 1 h [20]: 1050 nM
- concentration at 1 h [21]: 133 nM
- Kp at 2 h [22]: 0.03
- AUC [23]: 4510 ng·h/mL
- Cmax [24]: 600 ng/mL
- Tmax [25]: 2 h
- Kp at 4 h [26]: 0.22
- Papp [27]: 31.5 ×10⁻⁶ cm/s
- concentration at 2 h [28]: 944 nM
- Cp(f) (Plasma [29]): 560 nM
- Kp at 1 h [30]: 0.03
- AUC(0-t) [31]: 9400 ng·h/mL
- Kp uu at 1 h [32]: 0.18
- Kp uu at 4 h [33]: 0.16
- Kp uu at 6 h [34]: 0.27
- Kp uu at 4 h [35]: 0.24
- Kp at 4 h [36]: 0.02
